# Source: patent US9833497B2, “Human originated EGF domain proteins and use of the same” (CHENGDU SOURCEBIO LIMITED-LIABILITY COMPANY, priority 2013, dated 2017)
# Tests used:
# Assay type in all cases: cell-based
# Klebsiella pneumonia = experiment: MIC against Gram-negative bacteria: Klebsiella pneumonia
# In short: (§1)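 MIC, the lowest recombinant protein concentration giving no bacterial growth, found by two-fold serial dilution of human EGF-domain proteins in triplicate. Inoculum 5×10^5 CFU/mL in LB from cultures at McFarland 0.5; plates incubated at 37° C, 175 rpm shaking.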
# Citrobacter diversus = experiment: MIC against Gram-negative bacteria: Citrobacter diversus
# In short: as §1
# E. coli DH5α = experiment: Antibacterial activity: MIC and growth curve against E. coli DH5α in 96-well plate; conditions: minimal inhibitory concentration against E. coli DH5α; 96-well plate, 5×10^5 CFU/mL, 37° C., judged after 8 h
# In short: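 MIC taken as lowest protein level with no bacterial growth, tracked by A600 every 30 min during 37 °C, 175 rpm culture. Two-fold protein series 50-12.5 μg/mL final, triplicate wells, against 5×10^5 CFU/mL of LB-washed mid-log cells.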
# Proteus mirabilis = experiment: MIC against Gram-negative bacteria: Proteus mirabilis
# In short: as §1
# Enterobacter cloacae = experiment: MIC against Gram-negative bacteria: Enterobacter cloacae
# In short: as §1
# Proteus vulgaris = experiment: MIC against Gram-negative bacteria: Proteus vulgaris
# In short: as §1
# Moraxella catarrhalis = experiment: MIC against Gram-negative bacteria: Moraxella catarrhalis
# In short: as §1
# Serratia marcescens = experiment: MIC against Gram-negative bacteria: Serratia marcescens
# In short: as §1
# Pseudomonas aeruginosa = experiment: MIC against Gram-negative bacteria: Pseudomonas aeruginosa
# In short: as §1
# E. coli BL21 = experiment: MIC against Gram-negative bacteria: E. coli BL21; conditions: for MIC (μg/mL) E. coli BL21 / MIC: E. coli BL21
# In short: as §1
# Aeromonas hydrophila = experiment: MIC against Gram-negative bacteria: Aeromonas hydrophila
# In short: as §1
# [1] = Klebsiella pneumonia, 96-well plate, 5×10^5 CFU/mL, 37° C., 10 h
# [2] = Citrobacter diversus, 96-well plate, 5×10^5 CFU/mL, 37° C., 10 h
# [3] = Proteus mirabilis, 96-well plate, 5×10^5 CFU/mL, 37° C., 10 h
# [4] = Enterobacter cloacae, 96-well plate, 5×10^5 CFU/mL, 37° C., 10 h
# [5] = Proteus vulgaris, 96-well plate, 5×10^5 CFU/mL, 37° C., 10 h
# [6] = Moraxella catarrhalis, 96-well plate, 5×10^5 CFU/mL, 37° C., 10 h
# [7] = Serratia marcescens, 96-well plate, 5×10^5 CFU/mL, 37° C., 10 h
# [8] = Pseudomonas aeruginosa, 96-well plate, 5×10^5 CFU/mL, 37° C., 10 h
# [9] = 96-well plate, 5×10^5 CFU/mL, 37° C., 10 h
# [10] = Aeromonas hydrophila, 96-well plate, 5×10^5 CFU/mL, 37° C., 10 h
# [11] = K. pneumonia, 10 h cultivation at 37° C., 5×10^5 CFU/mL
# [12] = C. diversus, 10 h cultivation at 37° C., 5×10^5 CFU/mL
# [13] = P. mirabilis, 10 h cultivation at 37° C., 5×10^5 CFU/mL
# [14] = E. cloacae, 10 h cultivation at 37° C., 5×10^5 CFU/mL
# [15] = P. vulgaris, 10 h cultivation at 37° C., 5×10^5 CFU/mL
# [16] = M. catarrhalis, 10 h cultivation at 37° C., 5×10^5 CFU/mL
# [17] = S. marcescens, 10 h cultivation at 37° C., 5×10^5 CFU/mL
# [18] = P. aeruginosa, 10 h cultivation at 37° C., 5×10^5 CFU/mL
# [19] = 10 h cultivation at 37° C., 5×10^5 CFU/mL
# [20] = A. hydrophila, 10 h cultivation at 37° C., 5×10^5 CFU/mL
# [21] = K. pneumonia, 10 h cultivation at 37° C.
# [22] = C. diversus, 10 h cultivation at 37° C.
# [23] = P. mirabilis, 10 h cultivation at 37° C.
# [24] = E. cloacae, 10 h cultivation at 37° C.
# [25] = P. vulgaris, 10 h cultivation at 37° C.
# [26] = M. catarrhalis, 10 h cultivation at 37° C.
# [27] = S. marcescens, 10 h cultivation at 37° C.
# [28] = P. aeruginosa, 10 h cultivation at 37° C.
# [29] = A. hydrophila, 10 h cultivation at 37° C.
substance,measurement,setting,value
PRT34 (ACHPGFYGPDCKLRCSCNNGEMCDRFQGCLCSPGWQGLQCE; listed as Homo sapiens),MIC (μg/mL) K. pneumonia,Klebsiella pneumonia; [1],12.5 µg/mL
same,MIC (μg/mL) C. diversus,Citrobacter diversus; [2],25 µg/mL
same,MIC,E. coli DH5α,100 µg/mL
same,MIC (μg/mL) P. mirabilis,Proteus mirabilis; [3],12.5 µg/mL
same,MIC (μg/mL) E. cloacae,Enterobacter cloacae; [4],12.5 µg/mL
same,MIC (μg/mL) P. vulgaris,Proteus vulgaris; [5],25 µg/mL
same,MIC (μg/mL) M. catarrhalis,Moraxella catarrhalis; [6],12.5 µg/mL
same,MIC (μg/mL) S. marcescens,Serratia marcescens; [7],12.5 µg/mL
same,MIC (μg/mL) P. aeruginosa,Pseudomonas aeruginosa; [8],25 µg/mL
same,MIC (μg/mL) E. coli BL21,E. coli BL21; [9],25 µg/mL
same,MIC (μg/mL) A. hydrophila,Aeromonas hydrophila; [10],25 µg/mL
PRT831 (DGRHCVRRSPCANRNGSCMHRCQVVRGLARCECHVGYQLAADGKACE; listed as Homo sapiens),MIC (μg/mL) K. pneumonia,Klebsiella pneumonia; [11],25 µg/mL
same,MIC (μg/mL) C. diversus,Citrobacter diversus; [12],50 µg/mL
same,MIC,E. coli DH5α,25 µg/mL
same,MIC (μg/mL) P. mirabilis,Proteus mirabilis; [13],50 µg/mL
same,MIC (μg/mL) E. cloacae,Enterobacter cloacae; [14],12.5 µg/mL
same,MIC (μg/mL) P. vulgaris,Proteus vulgaris; [15],25 µg/mL
same,MIC (μg/mL) M. catarrhalis,Moraxella catarrhalis; [16],12.5 µg/mL
same,MIC (μg/mL) S. marcescens,Serratia marcescens; [17],12.5 µg/mL
same,MIC (μg/mL) P. aeruginosa,Pseudomonas aeruginosa; [18],12.5 µg/mL
same,MIC (μg/mL) E. coli BL21,E. coli BL21; [19],25 µg/mL
same,MIC (μg/mL) A. hydrophila,Aeromonas hydrophila; [20],25 µg/mL
PRT794 (SSRCGCKNDAVCSPVDGSCTCKAGWHGVDCS; listed as Homo sapiens),MIC (μg/mL) K. pneumonia,Klebsiella pneumonia; [11],12.5 µg/mL
same,MIC (μg/mL) C. diversus,Citrobacter diversus; [12],25 µg/mL
same,MIC,E. coli DH5α,50 µg/mL
same,MIC (μg/mL) P. mirabilis,Proteus mirabilis; [13],25 µg/mL
same,MIC (μg/mL) E. cloacae,Enterobacter cloacae; [14],25 µg/mL
same,MIC (μg/mL) P. vulgaris,Proteus vulgaris; [15],50 µg/mL
same,MIC (μg/mL) M. catarrhalis,Moraxella catarrhalis; [16],12.5 µg/mL
same,MIC (μg/mL) S. marcescens,Serratia marcescens; [17],12.5 µg/mL
same,MIC (μg/mL) P. aeruginosa,Pseudomonas aeruginosa; [18],50 µg/mL
same,MIC (μg/mL) E. coli BL21,E. coli BL21; [19],12.5 µg/mL
same,MIC (μg/mL) A. hydrophila,Aeromonas hydrophila; [20],50 µg/mL
PRT73 (TNGQCQCKENYYKLLAQDTCLPCDCFPHGSHSRTCD; listed as Homo sapiens),MIC (μg/mL) K. pneumonia,Klebsiella pneumonia; [1],100 µg/mL
same,MIC (μg/mL) C. diversus,Citrobacter diversus; [2],12.5 µg/mL
same,MIC,E. coli DH5α,25 µg/mL
same,MIC (μg/mL) P. mirabilis,Proteus mirabilis; [3],12.5 µg/mL
same,MIC (μg/mL) E. cloacae,Enterobacter cloacae; [4],25 µg/mL
same,MIC (μg/mL) P. vulgaris,Proteus vulgaris; [5],50 µg/mL
same,MIC (μg/mL) M. catarrhalis,Moraxella catarrhalis; [6],50 µg/mL
same,MIC (μg/mL) S. marcescens,Serratia marcescens; [7],12.5 µg/mL
same,MIC (μg/mL) P. aeruginosa,Pseudomonas aeruginosa; [8],25 µg/mL
same,MIC (μg/mL) E. coli BL21,E. coli BL21; [9],50 µg/mL
same,MIC (μg/mL) A. hydrophila,Aeromonas hydrophila; [10],50 µg/mL
PRT981 (DINECRSGACHAAHTRDCLQDPGGGFRCLCHAGFSGPRCQ; listed as Homo sapiens),MIC,Klebsiella pneumonia; [21],12.5 µg/mL
same,MIC,Citrobacter diversus; [22],25 µg/mL
same,MIC,E. coli DH5α,25 µg/mL
same,MIC,Proteus mirabilis; [23],12.5 µg/mL
same,MIC,Enterobacter cloacae; [24],50 µg/mL
same,MIC,Proteus vulgaris; [25],50 µg/mL
same,MIC,Moraxella catarrhalis; [26],25 µg/mL
same,MIC,Serratia marcescens; [27],12.5 µg/mL
same,MIC,Pseudomonas aeruginosa; [28],50 µg/mL
same,MIC,E. coli BL21; 10 h cultivation at 37° C.,12.5 µg/mL
same,MIC,Aeromonas hydrophila; [29],12.5 µg/mL
PRT1014 (LRDFCSANPCVNGGVCLATYPQIQCHCPPGFEGHACE; listed as Homo sapiens),MIC,Klebsiella pneumonia; [21],25 µg/mL
same,MIC,Citrobacter diversus; [22],12.5 µg/mL
same,MIC,E. coli DH5α,12.5 µg/mL
same,MIC,Proteus mirabilis; [23],12.5 µg/mL
same,MIC,Enterobacter cloacae; [24],12.5 µg/mL
same,MIC,Proteus vulgaris; [25],50 µg/mL
same,MIC,Moraxella catarrhalis; [26],50 µg/mL
same,MIC,Serratia marcescens; [27],25 µg/mL
same,MIC,Pseudomonas aeruginosa; [28],50 µg/mL
same,MIC,E. coli BL21; 10 h cultivation at 37° C.,25 µg/mL
same,MIC,Aeromonas hydrophila; [29],50 µg/mL
PRT708 (QYYVCHHYCVNSESCTIGDDGSVECVCPTRYEGPKCE; listed as Homo sapiens),MIC K. pneumonia,Klebsiella pneumonia; [9],25 µg/mL
same,MIC C. diversus,Citrobacter diversus; [9],50 µg/mL
same,MIC,E. coli DH5α,50 µg/mL
same,MIC P. mirabilis,Proteus mirabilis; [9],50 µg/mL
same,MIC E. cloacae,Enterobacter cloacae; [9],50 µg/mL
same,MIC P. vulgaris,Proteus vulgaris; [9],12.5 µg/mL
same,MIC M. catarrhalis,Moraxella catarrhalis; [9],12.5 µg/mL
same,MIC S. marcescens,Serratia marcescens; [9],50 µg/mL
same,MIC P. aeruginosa,Pseudomonas aeruginosa; [9],50 µg/mL
same,MIC E. coli BL21,E. coli BL21; [9],25 µg/mL
same,MIC A. hydrophila,Aeromonas hydrophila; [9],12.5 µg/mL
